Measured values taken from US12577529B2, “Methods for producing neural cells” (QUIVER HOLDINGS INC., priority 2021, dated 2026).

Experiments:
[1] = system: NGN2 neurons (human iPS cell-derived excitatory neurons); experiment: Optopatch excitability assay in NGN2 neurons; format: cell-based
From the text: To characterize the intrinsic excitability activity of human iPS cell-derived excitatory neurons with the Optopatch platform the two iPS cell lines, “11a” and “20b”, from Example 1 were used. These two iPS cell lines were derived from two neurologically healthy male subjects. The 11a and 20b iPS cells are converted into excitatory neurons using a transcriptional programming approach whereby the pro-neuronal transcription factor NEUROGENIN2 (NGN2) is overexpressed using doxycycline responsive lentiviral constructs as described in Example 1. This process drives the rapid conversion of iPS cells into neurons that resemble cortical excitatory neurons.
The resulting neurons are cryopreserved and subsequently thawed.
The thawed cells are co-cultured with primary rodent glia to facilitate neuronal electrophysiological maturation. To enable Optopatch measurements, the cells are transduced with lentiviral constructs expressing Optopatch components driven by the neuronal excitatory promoter CAMK2A and signals are recorded from the cells 2 weeks later. At the time of Optopatch measurements, the NGN2 excitatory neuron are homogeneous and electrophysiologically active, yielding highly stereotyped and reproducible data across cells, dishes, differentiation rounds and cell lines.
Optopatch measurements are carried out in a custom-built ultra-widefield fluorescence microscope, as described herein. Using this platform, intrinsic excitability properties are recorded for 11a and 20b NGN2 neuronal cultures at DIV25 in the presence of synaptic blockers NBQX, D-AP5 and Gabazine to block AMPA, NMDA and GABA currents, respectively. A custom blue light stimulus protocol of three 500 ms blue light steps of increasing intensity (1, 15 and 75 mW/cm^2) followed by two 2 second ramps of linearly increasing intensity (0.5-10 mW/cm^2 and 0.5-110 mW/cm^2) is used to elicit a range of activity from individual neurons. ˜50 to 100 neurons are simultaneously stimulated and recorded in a single field of view.
High signal-to-noise ratio (SNR) fluorescence-time traces are generated, and action potentials can be detected with high fidelity. Individual action potentials are detected for each of the hundreds of neurons and recorded with Optopatch and plotted on a spike raster plot, where each row represents a single neuron, and each dot represents a detected spike. While individual neurons show a diversity of spiking behavior throughout the stimulus protocol, the average firing rate of the population is remarkably similar for both cell lines.
The sensitivity of an excitability assay for detecting pharmacological modulation in NGN2 neurons using the well-characterized compound quinidine, which is reported to increase spike width and reduce spike activity is tested. […] These changes can be observed in the individual traces at 10 μM and 30 μM quinidine.
Additional quantification of both the response to quinidine and retigabine in is determined using an Optopatch excitability assay. Quinidine has been reported to block several voltage-, Na^+ and Ca^++ gated potassium channels (KNa1.1, KCa5.1, K2P16.1, Kv1.5, Kv1.7, Kv10.1, Kv10.2), including two-pore forming channels as well as voltage gated Na^+ channels.

[2] = target: Kv7.2 (Homo sapiens, UniProt O43526); conditions: read-out: Kv7.2 EC50; cited from earlier work
Sequence of Kv7.2 (O43526 whole entry): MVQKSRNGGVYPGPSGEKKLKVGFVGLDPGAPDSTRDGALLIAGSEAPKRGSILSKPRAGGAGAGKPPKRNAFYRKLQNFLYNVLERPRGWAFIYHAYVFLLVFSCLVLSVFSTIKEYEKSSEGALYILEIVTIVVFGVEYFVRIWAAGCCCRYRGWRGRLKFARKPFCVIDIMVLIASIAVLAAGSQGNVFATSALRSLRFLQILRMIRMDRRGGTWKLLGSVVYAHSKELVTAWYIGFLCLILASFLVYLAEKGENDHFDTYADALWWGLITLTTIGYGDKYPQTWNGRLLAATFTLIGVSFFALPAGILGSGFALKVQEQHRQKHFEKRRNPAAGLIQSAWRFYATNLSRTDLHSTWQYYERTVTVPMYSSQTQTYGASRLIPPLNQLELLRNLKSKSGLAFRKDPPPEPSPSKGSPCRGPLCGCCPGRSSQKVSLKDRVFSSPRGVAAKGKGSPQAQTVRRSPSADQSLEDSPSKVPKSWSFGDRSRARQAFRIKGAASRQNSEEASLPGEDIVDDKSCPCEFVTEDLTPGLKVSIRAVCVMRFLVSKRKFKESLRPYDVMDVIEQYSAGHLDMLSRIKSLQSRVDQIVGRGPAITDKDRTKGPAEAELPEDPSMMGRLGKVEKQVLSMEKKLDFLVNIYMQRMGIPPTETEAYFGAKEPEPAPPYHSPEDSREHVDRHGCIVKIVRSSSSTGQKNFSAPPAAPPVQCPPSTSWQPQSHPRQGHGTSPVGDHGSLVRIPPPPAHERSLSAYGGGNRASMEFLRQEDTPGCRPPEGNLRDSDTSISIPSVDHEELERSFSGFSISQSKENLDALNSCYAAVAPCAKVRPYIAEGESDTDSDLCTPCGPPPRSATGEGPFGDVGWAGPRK

[3] = maximum concentration tested (30 μM)

| Structure (SMILES) | changes to spike waveform and firing rate ([1]; acute addition, observed in individual traces at 10 μM and 30 μM) | broadening of the spikes ([1]; concentration dependent) | mean firing rate (spike rate) versus vehicle ([1]; different concentrations, with increased blue light stimulus) | spike rate ([1]; higher stimulation intensities (15 and 75 mW/cm^2)) | magnitude of the AhP depth (measured from the baseline fluorescence before the action potential) [1, 3] | spike rise time (measured from start to peak of the action potential) [1, 3] | spike width (measured from the base of the action potential) [1, 3] | time to the maximum of the after hyperpolarization (AhP) depth [1, 3] | EC50 [2] [nM] |
| --- | --- | --- | --- | --- | --- | --- | --- | --- | --- |
| C=C[C@H]1C[N@@]2CC[C@H]1C[C@@H]2[C@@H](O)c1ccnc2ccc(OC)cc12 [quinidine] | dramatic changes to both the spike waveform and firing rate | concentration dependent broadening of the spikes | dramatic reduction in spike rate | concentration dependent reduction in the spike rate | decreases | increases | increases | increases |  |
| CCOC(=O)Nc1ccc(NCc2ccc(F)cc2)cc1N [retigabine] |  |  |  |  |  |  |  |  | 2500 |
